# Laboratory results from ChEMBL document CHEMBL1641425, “Discovery of 1-(3,4-dichlorophenyl)-N,N-dimethyl-1,2,3,4-tetrahydroquinolin-4-amine, a dual serotonin and dopamine reuptake inhibitor” (Bioorg Med Chem Lett, 2011).
# How the values were obtained:
# [1] = target: Sodium-dependent serotonin transporter (Homo sapiens, UniProt P31645); assay: Inhibition of human recombinant 5HT transporter
# [2] = target: Sodium-dependent dopamine transporter (Homo sapiens, UniProt Q01959); assay: Inhibition of human recombinant dopamine transporter
# [3] = target: Sodium-dependent noradrenaline transporter (Homo sapiens, UniProt P23975); assay: Inhibition of human recombinant norepinephrine transporter
# [4] = Half life in human microsomes; type: ADME, Microsome
# Cytochrome P450 2C9 = Cytochrome P450 2C9 (Homo sapiens, UniProt P11712); assay: Inhibition of CYP2C9; type: ADME
# [5] = Inhibition of CYP1A; type: ADME
# Cytochrome P450 2D6 = Cytochrome P450 2D6 (Homo sapiens, UniProt P10635); assay: Inhibition of CYP2D6; type: ADME
# [6] = Half life in mouse microsomes; type: ADME, Microsome
# Cytochrome P450 2C19 = Cytochrome P450 2C19 (Homo sapiens, UniProt P33261); assay: Inhibition of CYP2C19; type: ADME
# [7] = target: Voltage-gated inwardly rectifying potassium channel KCNH2 (Homo sapiens, UniProt Q12809)
# Cytochrome P450 3A4 = Cytochrome P450 3A4 (Homo sapiens, UniProt P08684); assay: Inhibition of CYP3A4; type: ADME
# Cytochrome P450 3A4, sequence (P08684 whole entry): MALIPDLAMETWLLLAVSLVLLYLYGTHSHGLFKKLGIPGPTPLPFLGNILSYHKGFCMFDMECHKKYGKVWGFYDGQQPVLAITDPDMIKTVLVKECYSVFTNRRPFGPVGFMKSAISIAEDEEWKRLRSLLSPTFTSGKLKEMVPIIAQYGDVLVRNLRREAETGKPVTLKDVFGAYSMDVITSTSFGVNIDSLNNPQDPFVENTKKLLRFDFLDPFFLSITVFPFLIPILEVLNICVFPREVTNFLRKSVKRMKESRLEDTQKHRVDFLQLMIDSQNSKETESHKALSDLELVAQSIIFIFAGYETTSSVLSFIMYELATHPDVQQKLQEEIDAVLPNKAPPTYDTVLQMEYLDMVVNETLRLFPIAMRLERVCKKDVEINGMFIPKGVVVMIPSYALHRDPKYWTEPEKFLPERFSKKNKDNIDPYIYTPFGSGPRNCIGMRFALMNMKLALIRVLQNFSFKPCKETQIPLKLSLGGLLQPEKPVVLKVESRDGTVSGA
# Cytochrome P450 2D6, sequence (P10635 whole entry): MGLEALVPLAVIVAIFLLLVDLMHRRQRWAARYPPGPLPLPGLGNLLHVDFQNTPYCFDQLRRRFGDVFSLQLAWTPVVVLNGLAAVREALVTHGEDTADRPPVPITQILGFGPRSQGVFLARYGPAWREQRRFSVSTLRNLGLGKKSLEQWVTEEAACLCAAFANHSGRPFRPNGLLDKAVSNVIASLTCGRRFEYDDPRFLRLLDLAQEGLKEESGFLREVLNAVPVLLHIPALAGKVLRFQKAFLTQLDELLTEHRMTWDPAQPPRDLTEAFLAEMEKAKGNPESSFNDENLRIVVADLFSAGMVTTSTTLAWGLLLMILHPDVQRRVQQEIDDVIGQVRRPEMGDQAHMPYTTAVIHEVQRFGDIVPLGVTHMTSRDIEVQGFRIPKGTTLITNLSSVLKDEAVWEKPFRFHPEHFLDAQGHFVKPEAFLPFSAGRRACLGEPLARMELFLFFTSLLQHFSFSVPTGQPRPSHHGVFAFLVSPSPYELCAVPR
# Sodium-dependent serotonin transporter, sequence (P31645 whole entry): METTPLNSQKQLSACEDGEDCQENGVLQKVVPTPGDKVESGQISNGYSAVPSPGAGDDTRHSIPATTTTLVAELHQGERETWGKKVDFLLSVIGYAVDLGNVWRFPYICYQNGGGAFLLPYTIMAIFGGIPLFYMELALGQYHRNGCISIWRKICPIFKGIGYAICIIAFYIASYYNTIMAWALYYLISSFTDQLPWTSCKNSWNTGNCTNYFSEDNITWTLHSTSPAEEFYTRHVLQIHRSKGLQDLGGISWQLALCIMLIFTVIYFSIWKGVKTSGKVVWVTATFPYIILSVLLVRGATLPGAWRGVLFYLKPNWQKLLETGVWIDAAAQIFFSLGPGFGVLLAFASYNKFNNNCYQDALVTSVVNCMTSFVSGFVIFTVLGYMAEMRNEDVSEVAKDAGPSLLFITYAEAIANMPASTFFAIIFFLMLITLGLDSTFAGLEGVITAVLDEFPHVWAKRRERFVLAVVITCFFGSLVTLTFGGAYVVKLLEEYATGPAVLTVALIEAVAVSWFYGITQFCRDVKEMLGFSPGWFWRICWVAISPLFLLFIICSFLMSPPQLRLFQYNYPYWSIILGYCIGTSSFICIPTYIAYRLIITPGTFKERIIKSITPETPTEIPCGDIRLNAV
# Cytochrome P450 2C19, sequence (P33261 whole entry): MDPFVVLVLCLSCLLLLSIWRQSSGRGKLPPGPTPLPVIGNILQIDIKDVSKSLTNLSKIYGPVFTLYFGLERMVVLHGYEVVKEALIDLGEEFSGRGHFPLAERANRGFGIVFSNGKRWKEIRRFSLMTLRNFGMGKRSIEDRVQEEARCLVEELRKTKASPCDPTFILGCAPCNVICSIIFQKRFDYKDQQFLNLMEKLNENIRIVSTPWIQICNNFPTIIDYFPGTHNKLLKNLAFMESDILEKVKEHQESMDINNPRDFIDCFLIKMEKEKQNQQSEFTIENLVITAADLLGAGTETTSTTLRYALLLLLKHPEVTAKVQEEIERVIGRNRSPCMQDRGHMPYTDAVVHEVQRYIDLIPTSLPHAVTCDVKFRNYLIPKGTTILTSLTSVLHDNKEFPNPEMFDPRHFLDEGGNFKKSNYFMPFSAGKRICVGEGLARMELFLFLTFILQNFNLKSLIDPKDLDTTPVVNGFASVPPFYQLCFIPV
# Voltage-gated inwardly rectifying potassium channel KCNH2, sequence (Q12809 whole entry): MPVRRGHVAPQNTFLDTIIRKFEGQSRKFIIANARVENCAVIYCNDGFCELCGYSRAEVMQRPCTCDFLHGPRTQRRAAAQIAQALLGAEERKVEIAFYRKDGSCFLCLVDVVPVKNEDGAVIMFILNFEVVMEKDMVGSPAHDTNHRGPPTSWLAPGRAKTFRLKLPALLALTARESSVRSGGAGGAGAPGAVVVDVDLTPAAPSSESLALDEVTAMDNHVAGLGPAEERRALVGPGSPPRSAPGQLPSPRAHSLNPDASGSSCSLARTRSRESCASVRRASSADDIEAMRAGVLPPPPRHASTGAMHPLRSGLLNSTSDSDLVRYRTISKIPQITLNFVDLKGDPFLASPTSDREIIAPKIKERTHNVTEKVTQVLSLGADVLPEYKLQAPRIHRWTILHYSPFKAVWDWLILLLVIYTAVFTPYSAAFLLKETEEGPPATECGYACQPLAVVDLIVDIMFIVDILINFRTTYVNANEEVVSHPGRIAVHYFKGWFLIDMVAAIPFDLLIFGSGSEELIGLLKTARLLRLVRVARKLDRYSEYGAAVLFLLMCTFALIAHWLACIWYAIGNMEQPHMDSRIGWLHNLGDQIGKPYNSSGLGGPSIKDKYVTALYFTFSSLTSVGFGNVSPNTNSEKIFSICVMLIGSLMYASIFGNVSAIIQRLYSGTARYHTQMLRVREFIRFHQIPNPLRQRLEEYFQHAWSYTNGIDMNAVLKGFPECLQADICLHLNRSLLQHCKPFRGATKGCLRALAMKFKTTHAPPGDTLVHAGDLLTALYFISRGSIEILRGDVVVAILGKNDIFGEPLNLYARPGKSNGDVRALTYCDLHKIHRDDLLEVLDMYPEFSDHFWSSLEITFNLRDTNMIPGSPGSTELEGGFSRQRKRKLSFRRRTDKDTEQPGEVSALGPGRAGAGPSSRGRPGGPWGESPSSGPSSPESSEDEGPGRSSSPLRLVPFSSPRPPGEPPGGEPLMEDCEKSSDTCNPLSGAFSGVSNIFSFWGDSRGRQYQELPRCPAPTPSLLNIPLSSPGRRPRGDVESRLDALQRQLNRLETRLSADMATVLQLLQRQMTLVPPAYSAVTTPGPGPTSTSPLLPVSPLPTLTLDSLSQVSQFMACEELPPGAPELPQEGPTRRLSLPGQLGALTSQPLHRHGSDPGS
# Cytochrome P450 2C9, sequence (P11712 whole entry): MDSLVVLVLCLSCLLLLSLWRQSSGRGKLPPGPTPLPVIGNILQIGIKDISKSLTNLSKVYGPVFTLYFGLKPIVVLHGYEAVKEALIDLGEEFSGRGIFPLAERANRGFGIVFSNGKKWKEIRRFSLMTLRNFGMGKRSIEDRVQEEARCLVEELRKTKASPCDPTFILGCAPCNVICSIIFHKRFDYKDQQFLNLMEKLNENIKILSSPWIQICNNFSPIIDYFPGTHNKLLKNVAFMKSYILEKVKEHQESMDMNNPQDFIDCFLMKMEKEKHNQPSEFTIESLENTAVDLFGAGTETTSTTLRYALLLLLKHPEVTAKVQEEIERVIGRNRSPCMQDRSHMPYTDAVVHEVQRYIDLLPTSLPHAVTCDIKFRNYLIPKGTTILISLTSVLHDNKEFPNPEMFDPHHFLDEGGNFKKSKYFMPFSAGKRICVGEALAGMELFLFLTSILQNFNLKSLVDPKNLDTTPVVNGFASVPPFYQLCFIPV
# Sodium-dependent dopamine transporter, sequence (Q01959 whole entry): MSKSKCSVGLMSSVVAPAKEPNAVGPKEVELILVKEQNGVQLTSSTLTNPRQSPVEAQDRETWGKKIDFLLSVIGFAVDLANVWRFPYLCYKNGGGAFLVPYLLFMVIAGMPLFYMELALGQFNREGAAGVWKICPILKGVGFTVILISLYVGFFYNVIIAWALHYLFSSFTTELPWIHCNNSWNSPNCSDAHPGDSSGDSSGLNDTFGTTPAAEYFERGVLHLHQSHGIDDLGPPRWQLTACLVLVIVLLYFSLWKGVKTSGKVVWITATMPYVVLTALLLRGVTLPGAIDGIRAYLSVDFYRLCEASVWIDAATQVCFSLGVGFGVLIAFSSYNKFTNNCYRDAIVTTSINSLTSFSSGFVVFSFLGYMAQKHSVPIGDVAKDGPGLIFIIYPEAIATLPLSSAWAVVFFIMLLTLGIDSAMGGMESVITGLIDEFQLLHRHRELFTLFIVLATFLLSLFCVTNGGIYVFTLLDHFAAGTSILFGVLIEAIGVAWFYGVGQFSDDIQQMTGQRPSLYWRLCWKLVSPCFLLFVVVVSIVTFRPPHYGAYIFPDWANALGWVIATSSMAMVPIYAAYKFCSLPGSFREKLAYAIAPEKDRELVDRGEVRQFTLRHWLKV
# Sodium-dependent noradrenaline transporter, sequence (P23975 whole entry): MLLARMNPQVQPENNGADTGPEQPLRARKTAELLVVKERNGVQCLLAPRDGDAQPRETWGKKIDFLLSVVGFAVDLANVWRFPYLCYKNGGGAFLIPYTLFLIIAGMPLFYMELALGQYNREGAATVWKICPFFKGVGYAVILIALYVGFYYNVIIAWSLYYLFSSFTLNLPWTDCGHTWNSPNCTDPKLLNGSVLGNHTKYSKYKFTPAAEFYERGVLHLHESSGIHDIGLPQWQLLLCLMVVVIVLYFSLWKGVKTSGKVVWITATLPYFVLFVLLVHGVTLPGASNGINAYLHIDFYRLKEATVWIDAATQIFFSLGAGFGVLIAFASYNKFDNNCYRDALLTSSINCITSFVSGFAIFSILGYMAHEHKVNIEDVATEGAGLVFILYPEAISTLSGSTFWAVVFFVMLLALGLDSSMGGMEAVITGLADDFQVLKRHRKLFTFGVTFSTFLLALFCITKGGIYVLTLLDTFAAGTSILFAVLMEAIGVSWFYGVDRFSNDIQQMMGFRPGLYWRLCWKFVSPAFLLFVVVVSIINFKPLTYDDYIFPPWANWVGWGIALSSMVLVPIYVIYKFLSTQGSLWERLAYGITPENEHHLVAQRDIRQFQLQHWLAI
Compound,IC50 [1] [nM],IC50 [2] [nM],IC50 [3] [nM],half-life [4] [min],IC50 (Cytochrome P450 2C9) [µM],IC50 [5] [µM],IC50 (Cytochrome P450 2D6) [µM],half-life [6] [min],IC50 (Cytochrome P450 2C19) [µM],IC50 (Cytochrome P450 3A4) [µM],IC50 [7] [µM]
N[C@H]1Cc2ccccc2N(c2ccc(Cl)c(Cl)c2)C1,2400,465,1850,,,,,,,,
CN[C@H]1Cc2ccccc2[C@@H](c2ccc(Cl)c(Cl)c2)C1,,72,,,,,,,,,
NC1Cc2ccccc2N(c2ccc(Cl)c(Cl)c2)C1 (stereo unspecified),2550,605,2600,,,,,,,,
CN(C)C1Cc2ccccc2N(c2ccc(Cl)c(Cl)c2)C1 (stereo unspecified),436,122,1860,,,,,,,,
CNC1Cc2ccccc2N(c2ccc(Cl)c(Cl)c2)C1 (stereo unspecified),985,177,1010,,,,,,,,
CN[C@H]1Cc2ccccc2N(c2ccc(Cl)c(Cl)c2)C1,128,100,1250,237,,,0.1,20,,,
CN(C)[C@H]1Cc2ccccc2N(c2ccc(Cl)c(Cl)c2)C1,5560,309,3090,,,,,,,,

# Second part, led by results:
IC50 [1] [nM],IC50 [2] [nM],IC50 [3] [nM],half-life [4] [min],IC50 (Cytochrome P450 2C9) [µM],IC50 [5] [µM],IC50 (Cytochrome P450 2D6) [µM],half-life [6] [min],IC50 (Cytochrome P450 2C19) [µM],IC50 (Cytochrome P450 3A4) [µM],Compound,IC50 [7] [µM]
650,246,926,,,,,,,,NC1CCN(c2ccc(Cl)c(Cl)c2)c2ccccc21 (stereo unspecified),
3,5030,7140,,,,,,,,CN(C)C1CCN(c2ccc(Cl)c(Cl)c2)c2ccccc21 (stereo unspecified),
20,39,934,199,> 25,> 25,3,22,14.1,> 25,CNC1CCN(c2ccc(Cl)c(Cl)c2)c2ccccc21 (stereo unspecified),7.8
116,12,138,> 300,> 25,> 25,4.87,201,> 25,> 25,N[C@@H]1CCN(c2ccc(Cl)c(Cl)c2)c2ccccc21,3.5
132,8,601,> 300,> 25,> 25,1.5,> 300,19,> 25,CN[C@@H]1CCN(c2ccc(Cl)c(Cl)c2)c2ccccc21,3.25
7,16,1180,> 300,0.25,> 25,6.02,0.3,> 25,> 25,CN(C)[C@@H]1CCN(c2ccc(Cl)c(Cl)c2)c2ccccc21,
